From publication PMC5557489, “Computational and experimental analysis of short peptide motifs for enzyme inhibition” (PLoS ONE, 2017)
Where two headings read alike, the source gives them in different places. Ends that are not written are not given here.

Molecular target: T1, β-galactosidase (β-Gal) (Escherichia coli, UniProt P00722)
T1 construct: purchased Sigma (St. Louis, MO)
Experiment: biochemical
Type: biochemical
Description: Solution-based enzyme assays were performed on SpectraMax M5 96 well plate readers (Molecular Device, Sunnyvale, CA) as described previously.[13] Briefly, peptides were first incubated with enzyme for 20 minutes, then the substrate solution was added into the wells to measure the enzyme activity, including at least three replicates per peptide. The β-gal catalyzed hydrolysis of RBG was fluorescently monitored at 590 nm (resorufin) with the excitation at 540 nm. The velocity of the reaction was determined by the initial velocity of the linear reaction. The IC50 of each inhibitor was determined by fitting the concentration vs. inhibition curve to the function ‘Fit LogIC50’ as defined in the program GraphPad Prism 7 using the fitting equation “Y = Bottom+(Top-Bottom)/(1+10^(X-LogIC50))”.
The enzyme inhibition was also quantitatively characterized using the inhibition percentage that was calculated using the following equation: Inhibition Percentage = (Activityuninhibited− Activityinhibited)/ Activityuninhibited× 100% […]
Fluorescein di-β-D-galactopyranoside (FDG), resorufin β-D-galactopyranoside (RBG) and Alexa Fluor 647 (Alexa 647) were purchased from Invitrogen (Eugene, OR). Phenylethyl β-D-thiogalactoside (PETG), β-galactosidase (β-Gal), phosphate buffered saline (PBS) and tris buffered saline (TBS) were obtained from Sigma (St. Louis, MO). A 4 mg/mL stock solution of β-Gal was prepared in 10 mM potassium phosphate buffer with 0.1 mM MgCl2 at pH 7.4. A 2 mg/mL stock solution of peptide was first prepared in pure water, and then diluted in phosphate buffer to the desired concentration. Custom peptides were purchased from Sigma.

T1 sequence (P00722 2-1024): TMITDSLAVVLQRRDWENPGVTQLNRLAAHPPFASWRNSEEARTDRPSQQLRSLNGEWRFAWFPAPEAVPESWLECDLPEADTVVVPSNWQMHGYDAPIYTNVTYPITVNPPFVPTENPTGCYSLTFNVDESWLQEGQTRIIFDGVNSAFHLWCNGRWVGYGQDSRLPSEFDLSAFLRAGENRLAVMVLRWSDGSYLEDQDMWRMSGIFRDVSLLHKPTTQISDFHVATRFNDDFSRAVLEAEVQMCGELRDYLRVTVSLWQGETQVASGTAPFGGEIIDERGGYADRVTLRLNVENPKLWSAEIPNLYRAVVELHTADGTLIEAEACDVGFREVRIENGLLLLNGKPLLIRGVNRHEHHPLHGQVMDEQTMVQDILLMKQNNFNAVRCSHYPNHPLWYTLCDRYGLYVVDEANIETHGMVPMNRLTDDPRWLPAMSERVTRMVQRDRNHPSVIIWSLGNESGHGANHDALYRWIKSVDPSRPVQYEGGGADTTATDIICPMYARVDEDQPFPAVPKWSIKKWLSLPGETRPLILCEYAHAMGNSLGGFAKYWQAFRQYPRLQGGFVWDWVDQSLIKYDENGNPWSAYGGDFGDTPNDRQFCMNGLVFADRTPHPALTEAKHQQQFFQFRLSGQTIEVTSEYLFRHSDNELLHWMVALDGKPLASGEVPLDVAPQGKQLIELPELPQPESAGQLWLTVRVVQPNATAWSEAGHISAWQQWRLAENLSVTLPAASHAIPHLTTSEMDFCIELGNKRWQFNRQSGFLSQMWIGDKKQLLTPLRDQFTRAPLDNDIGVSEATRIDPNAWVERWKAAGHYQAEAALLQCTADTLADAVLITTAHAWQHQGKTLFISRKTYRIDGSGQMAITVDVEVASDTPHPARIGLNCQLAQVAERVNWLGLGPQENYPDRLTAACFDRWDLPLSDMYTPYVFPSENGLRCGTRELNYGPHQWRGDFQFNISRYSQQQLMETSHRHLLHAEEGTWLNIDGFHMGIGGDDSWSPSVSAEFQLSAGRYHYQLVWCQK

Row | Compound | IC50 [µM] | other results
1 | FKRYRRWGSC [nPEP-1-45] | ~2.5 | 
2 | PASMFSYFKKQGYYYKLGSC [PEP-2] | ~13 | 
3 | OC[C@H]1O[C@@H](SCCc2ccccc2)[C@H](O)[C@@H](O)[C@@H]1O [PETG, phenylethyl β-D-thiogalactoside, reference compound] |  | IC50 (Fig 1, 100 μM RBG, β-Gal 150 μg/L, 25°C, three replicates, lead peptides previously selected from microarray [13], read-out: IC50 of peptide inhibition of β-Gal): ~35 µM
4 | KKQGYYYKLGSC [shorter C-terminus motif of PEP-2 from truncation analysis] |  | normalized inhibition of β-Gal, truncation scan of PEP-2 (Fig 3B, normalized to the inhibition percentage value of PEP-2 at 50 μM, three replicates): inhibited β-Gal
5 | FKRYKRWGSC [nPEP-1] | ~4 | 
6 | RVFKRYKRWLHVSRYYFGSC [PEP-1] | ~1.6 | 
